According to PMC10770148, “Transport and inhibition mechanism for VMAT2-mediated synaptic vesicle loading of monoamines” (Cell Research, 2024):
Like-named read-outs stand apart in the source and are kept apart here.

Experiments:
VMAT2 and VMAT1 = system: VMAT2 and VMAT1; design: method as in PMID 8643547; details: cited from earlier work
[1] = target: T1, VMAT2 Leu124 and Leu125 mutant (Homo sapiens, UniProt Q05940, L124R/L125R); assay: MST binding to VMAT2 Leu124/Leu125 mutant; details: MST (Fig. S9a), versus WT
T1 construct: The eGFP-tagged full-length VMAT2 or VMAT2 mutants was purified by size exclusion chromatography; made in house; host or cells: Expi293 cells
T1 sequence (Q05940 whole entry L124R/L125R): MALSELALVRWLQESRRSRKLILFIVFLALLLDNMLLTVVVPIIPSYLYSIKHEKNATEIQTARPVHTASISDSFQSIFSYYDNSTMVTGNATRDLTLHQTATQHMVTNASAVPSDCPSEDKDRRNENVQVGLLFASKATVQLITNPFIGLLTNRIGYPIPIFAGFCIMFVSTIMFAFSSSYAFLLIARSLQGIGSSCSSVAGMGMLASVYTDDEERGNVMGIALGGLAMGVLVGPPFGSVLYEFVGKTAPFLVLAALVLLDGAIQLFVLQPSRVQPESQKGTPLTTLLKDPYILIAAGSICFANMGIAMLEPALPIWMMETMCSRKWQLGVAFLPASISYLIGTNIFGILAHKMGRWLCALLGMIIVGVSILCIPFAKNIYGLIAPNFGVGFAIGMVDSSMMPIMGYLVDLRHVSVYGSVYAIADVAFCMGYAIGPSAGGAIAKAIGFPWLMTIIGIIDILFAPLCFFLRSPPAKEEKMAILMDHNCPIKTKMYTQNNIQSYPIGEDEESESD
Method: (§1) The eGFP-tagged full-length VMAT2 or VMAT2 mutants was purified by size exclusion chromatography in the assay buffer (50 mM HEPES, 150 mM NaCl, 0.01% DDM, 0.001% CHS, pH 7.4) as described but without cleavage. Peak fractions were pooled and diluted to 40 nM. […] For MST measurements, a series of 16 sequential 1:1 dilutions were prepared using assay buffer for each ligand, and each ligand dilution was mixed 1:1 with diluted protein to final protein concentration of 20 nM and final ligand concentrations in the μM to nM range. The samples were incubated for 10 min at room temperature, and then loaded into Standard Monolith Capillaries (Cat# MO-K022, NanoTemper Technologies). Measurements were carried out with a Monolith NT.115 device at 80% LED power and 40% MST power. Kd was determined using the MO. Affinity Analysis software (version 2.3, NanoTemper Technologies, Germany) is with the Kd fit function. Capillaries displaying aggregation or adsorption were excluded. Data of at least three independently pipetted measurements were analyzed and Kd is expressed as mean ± SEM. Binding curves were plotted by GraphPad Prism Prism 9.5.1 (GraphPad Software Inc., San Diego, USA).

VMAT2_WT = VMAT2_WT (Homo sapiens, UniProt Q05940); assay: MST binding to WT VMAT2
Chain of VMAT2_WT (Q05940 whole entry): as the sequence (Q05940 whole entry L124R/L125R) above, with R124L, R125L counted along it
Method: as §1

VMAT1_WT = target: T2, VMAT1_WT (Homo sapiens, UniProt P54219); assay: MST binding to WT VMAT1
T2 sequence (P54219 1-525): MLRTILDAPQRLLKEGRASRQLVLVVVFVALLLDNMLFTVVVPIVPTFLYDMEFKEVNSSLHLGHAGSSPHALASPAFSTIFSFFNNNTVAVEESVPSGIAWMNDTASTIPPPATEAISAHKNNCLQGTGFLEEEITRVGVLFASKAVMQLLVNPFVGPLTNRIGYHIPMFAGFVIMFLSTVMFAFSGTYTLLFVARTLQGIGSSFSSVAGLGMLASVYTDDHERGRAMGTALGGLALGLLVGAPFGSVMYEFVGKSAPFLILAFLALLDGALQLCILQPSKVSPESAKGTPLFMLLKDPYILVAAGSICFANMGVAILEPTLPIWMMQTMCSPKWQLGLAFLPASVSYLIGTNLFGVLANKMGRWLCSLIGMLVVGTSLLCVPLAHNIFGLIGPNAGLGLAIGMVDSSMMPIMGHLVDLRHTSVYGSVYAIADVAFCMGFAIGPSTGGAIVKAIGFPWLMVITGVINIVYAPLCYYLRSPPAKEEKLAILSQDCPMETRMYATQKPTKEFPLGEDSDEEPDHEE

VMAT2 V232L = target: T3, VMAT2 V232L (Homo sapiens, UniProt Q05940, V232L); assay: MST binding to VMAT2 V232L mutant; details: V232L variant, mean ± SEM
T3 construct: The eGFP-tagged full-length VMAT2 or VMAT2 mutants was purified by size exclusion chromatography; made in house; host or cells: Expi293 cells
T3 sequence (Q05940 whole entry V232L): as the sequence (Q05940 whole entry L124R/L125R) above, with R124L, R125L, V232L counted along it
Method: as §1

VMAT2 W318A = target: T4, VMAT2 W318A (Homo sapiens, UniProt Q05940, W318A); assay: MST binding to VMAT2 W318A mutant; details: MST (Fig. S9a), versus WT
T4 construct: The eGFP-tagged full-length VMAT2 or VMAT2 mutants was purified by size exclusion chromatography; made in house; host or cells: Expi293 cells
T4 sequence (Q05940 whole entry W318A): as the sequence (Q05940 whole entry L124R/L125R) above, with R124L, R125L, W318A counted along it
Method: as §1

VMAT2 E312A = assay: MST binding to VMAT2 E312A mutant; design: species or system human; details: E312A versus WT, MST (Fig. S9a)
Method: as §1

VMAT1 = system: VMAT1; design: method as in PMID 23506877; details: cited from earlier work
VMAT2 = system: VMAT2; design: method as in PMID 23506877; details: cited from earlier work
VMAT2 L37F = target: T5, VMAT2 L37F (Homo sapiens, UniProt Q05940, L37F); assay: MST binding to VMAT2 L37F mutant
T5 construct: The eGFP-tagged full-length VMAT2 or VMAT2 mutants was purified by size exclusion chromatography; made in house; host or cells: Expi293 cells
T5 sequence (Q05940 whole entry L37F): as the sequence (Q05940 whole entry L124R/L125R) above, with L37F, R124L, R125L counted along it
Method: as §1

VMAT2 I308V = target: T6, VMAT2 I308V (Homo sapiens, UniProt Q05940, I308V); assay: MST binding to VMAT2 I308V mutant; details: I308V variant, mean ± SEM
T6 construct: The eGFP-tagged full-length VMAT2 or VMAT2 mutants was purified by size exclusion chromatography; made in house; host or cells: Expi293 cells
T6 sequence (Q05940 whole entry I308V): as the sequence (Q05940 whole entry L124R/L125R) above, with R124L, R125L, I308V counted along it
Method: as §1

VMAT2 N34A = assay: MST binding to VMAT2 N34A mutant; design: species or system human; details: N34A versus WT
Method: as §1

VMAT2 Y433F = target: T7, VMAT2 Y433F (Homo sapiens, UniProt Q05940, Y433F); assay: MST binding to VMAT2 Y433F mutant; details: Y433F variant, mean ± SEM
T7 construct: The eGFP-tagged full-length VMAT2 or VMAT2 mutants was purified by size exclusion chromatography; made in house; host or cells: Expi293 cells
T7 sequence (Q05940 whole entry Y433F): as the sequence (Q05940 whole entry L124R/L125R) above, with R124L, R125L, Y433F counted along it
Method: as §1

SMILES: COC(=O)[C@H]1[C@H]2C[C@@H]3c4[nH]c5cc(OC)ccc5c4CCN3C[C@H]2C[C@@H](OC(=O)c2cc(OC)c(OC)c(OC)c2)[C@@H]1OC [RES, reserpine]
- affinity or preference VMAT2 versus VMAT1 (VMAT2 and VMAT1): slight preference for VMAT2 over VMAT1

SMILES: NCCc1c[nH]cn1 [histamine]
- higher affinity of VMAT2 than VMAT1 (VMAT2 and VMAT1; substrates): 30 fold

SMILES: COc1cc2c(cc1OC)C1CC(=O)C(CC(C)C)CN1CC2 (stereo not drawn) [TBZ, tetrabenazine]
- TBZ association, Leu124 and Leu125 perturbations [1]: largely diminished TBZ association
- affinity or preference VMAT2 versus VMAT1 (VMAT2 and VMAT1): selectively target VMAT2
- Kd (VMAT2_WT; MST, VMAT2 WT, mean ± SEM, n = 3–4, read-out: Kd): 60 nM
- difference in affinity between VMAT2 and VMAT1 (VMAT1_WT; 60 nM vs 9.38 μM): ~150 fold
- Kd (VMAT1_WT; VMAT1 WT, mean ± SEM): 9380 nM
- Kd (VMAT2 V232L): 22900 ± 20000 nM
- TBZ binding, W318A mutant (VMAT2 W318A): substantial reduction in TBZ binding
- decrease in TBZ binding affinity, E312A mutant (VMAT2 E312A): 8 fold
- IC50 difference VMAT2 versus VMAT1 (VMAT1; 0.3 μM vs 3 μM): 10 fold
- IC50 (VMAT1; VMAT1): 3000 nM
- reduction of TBZ binding by L37F variant (VMAT2 L37F; L37F versus WT VMAT2, MST): 45 fold
- Kd (VMAT2 L37F; MST, L37F variant, mean ± SEM): 2780 ± 1080 nM
- Kd (VMAT2 I308V): 168 ± 103 nM
- reduction in TBZ binding affinity, N34A substitution (VMAT2 N34A): 7 fold
- Kd (VMAT2 Y433F): 437 ± 141 nM

SMILES: NCCc1c[nH]c2ccc(O)cc12 [5-HT, serotonin]
- Kd (VMAT2_WT): 3300 ± 1010 nM
- Kd (VMAT2 Y433F): 3440 ± 1130 nM

SMILES: O=C(c1ccc(F)cc1)C1CCN(CCn2c(=O)[nH]c3ccccc3c2=O)CC1 [ketanserin]
- affinity or preference VMAT2 versus VMAT1 (VMAT2 and VMAT1): slight preference for VMAT2 over VMAT1
